The assay has as its system Influenza A virus. Kind of assay: Antiviral activity against Influenza A virus A/PR/8/34 (H1N1) infected in MDCK cells assessed as reduction in virus-induced cytopathic effect incubated for 5 days by CCK8 based microplate spectrophotometric analysis. The format is functional, organism-based. The settings on record: 120 h; for EC90: time 5 day.

As usually defined, the EC50 is the concentration needed to bring the measured effect to its halfway point. For orientation: EC90 means the concentration needed for an effect of 90%. Regarding `CN1C(=O)c2c(O)c(=O)ccn2N2[C@H](c3ccc(F)cc3)c3cc(F)c(F)cc3OCC[C@@H]12`, the 50% effective concentration (EC50) came to 14 nM and the EC90 was 24 nM.

`CN1C(=O)c2c(O)c(=O)ccn2N2[C@H](c3ccccc3C#N)c3cc(F)c(F)cc3OCC[C@@H]12` (racemic): the EC50 was over 500 nM and the EC90 was over 500 nM.

As for `O=C1c2c(O)c(=O)ccn2N2[C@H](c3ccccc3)c3ccccc3OCC[C@H]2N1C1CCC1` (racemic), the EC50 was found to be 65 nM and the EC90 came out at 120 nM.

For the compound `CN1C(=O)c2c(O)c(=O)ccn2N2[C@H](c3ccccc3)c3ccc(F)c(F)c3OCC[C@@H]12` (racemic), the EC50 came to 50 nM and the EC90 was found to be 93 nM.

For `CN1C(=O)c2c(O)c(=O)ccn2N2[C@H](c3ccc(F)c(F)c3)c3cc(F)c(F)cc3OCC[C@@H]12`, the EC50 is 25 nM and the EC90 worked out at 42 nM.

Regarding `CN1C(=O)c2c(O)c(=O)ccn2N2C(c3ccccc3)c3ccccc3OCCC12` (racemic), the concentration giving a half-maximal response (EC50) was over 1000 nM and the concentration for an effect of 90% (EC90) was over 1000 nM.

In the case of `CN1C(=O)c2c(O)c(=O)ccn2N2[C@H](c3ccccc3)c3ccccc3OCC[C@@H]12`, the EC50 is 14 nM and the concentration for an effect of 90% (EC90) came out at 26 nM.

These data come from ChEMBL document CHEMBL5528039, “Discovery of a Macrocyclic Influenza Cap-Dependent Endonuclease Inhibitor” (J Med Chem, 2024).
